Read-outs that look alike come from different tables or passages of the source. Starred links: 1 amine or outer side, 2 acyl side, 3 side chain; linkers in the order of their positions; H or OH if unused. Positions of bridges follow the written chain, without caps; N, C: chain ends. Non-standard residues stand in square brackets, D forms with d. Residues, ends and D or L forms follow the SMILES beside them. ξ: configuration not given here. *: point of attachment. Leu(3R-O(AcLeu(3R-OH))) = CC(=O)N[C@H](C(=O)O[C@H](C(C)C)[C@H](N)C(=O)O)[C@H](O)C(C)C; Leu(3R-OH,Nα-propionyl) = CCC(=O)N[C@H](C(=O)*)[C@H](O)C(C)C; X1 = CC(C)[C@@H](O[*:3])[C@H](N[*:1])C(=O)[*:2]; X5 = CSC[C@@H](O[*:3])[C@H](N[*:1])C(=O)[*:2]; ξLeu(3ξ-OH) = CC(C)C(O)C(N)C(=O)O; NMeT = CN[CH](C(=O)O)[CH](C)O; dPhLac = O=C(O)[C@H](O)Cc1ccccc1; PhLac = O=C(O)[CH](O)Cc1ccccc1; NMeA = CN[CH](C)C(=O)O; dNMeA = CN[C@H](C)C(=O)O; NMeDha = C=C(NC)C(=O)O
Legend:
[1] = tested on: A375 skin melanoma cell line (homozygous BRAF V600E); assay: Cell proliferation assay (resazurin cell viability), A375 cell line; type: cell-based
Text: (§1) Cell Proliferation Assays with Chromodepsins (compounds (A1) and 2-15): Cell line descriptions: 92.1—uveal melanoma cell line, derived from primary tumor, harboring heterozygous GNAQ Q209L mutation. Purchased from Sigma Aldrich. MP41 (CRL-3297) -uveal melanoma cell line, derived from primary tumor, harboring heterozygous GNA11 Q209L mutation. Purchased from ATCC. A375—skin melanoma cell line, harboring homozygous BRAF V600E mutation. Origin: Cancer Cell Line Encyclopedia (CCLE). SK-MEL-30—skin melanoma cell line, harboring heterozygous NRAS Q61K mutation. Origin: CCLE.
(§2) Cells were cultured in 96-well plates in a total volume of 100 μL at 37° C., 5% CO2 and 95% relative humidity. All cell lines were cultured in RPMI Medium (RPMI 1640 w/o L-glutamine, Bioconcept ref. 1-41F01-I) except A375, DMEM medium (DMEM high glucose (4.5 g/L), Bioconcept, ref. 1-26F01-I), and supplemented with 10% FCS (Bioconcept, ref. 2-01F30-I). Two to three thousand cells were seeded in 96-well plates per well the night before they were treated with compounds (concentration range: from 260 nM to 0.036 nM with ⅓ dilution steps; for 7 the concentration range was increased from 10000 nM to 1.52 nM with ⅓ dilution steps). Cell viability was measured by addition of 10 ul of resazurin per well after 96 hours of treatment. Results were analyzed and plotted using GraphPad Prism 9.0.1.

[2] = tested on: 92.1 uveal melanoma cell line (heterozygous GNAQ Q209L); assay: Cell proliferation assay (resazurin cell viability), 92.1 cell line; type: cell-based
Text: as §1, §2

[3] = tested on: SK-MEL-30 skin melanoma cell line (heterozygous NRAS Q61K); assay: Cell proliferation assay (resazurin cell viability), SK-MEL-30 cell line; type: cell-based
Text: as §1, §2

[4] = tested on: MDCK-LE monolayers; assay: Cell-based transwell assay with MDCK-low efflux monolayers (passive permeability); type: in vitro ADME; conditions: for % Fraction absorbed / % Recovery / Papp A − B: MDCK-LE monolayers
Procedure: Cell-based transwell assays with MDCK-low efflux monolayers: Compounds (A1) and 2-15 were tested in MDCK cell sub-clones with low effluxt ransporter activity (MDCK-LE) in order to determine their passive permeability. The incubations were performed at a contract research organization as described previously.

[5] = tested on: MP41 uveal melanoma cell line (heterozygous GNA11 Q209L); assay: Cell proliferation assay (resazurin cell viability), MP41 cell line; type: cell-based
Text: as §1, §2

[6] = tested on: 92.1 and MP41 cell lines (GNAQ/GNA11 mutant uveal melanoma); assay: Cell proliferation assays, potency ranking over both uveal melanoma lines; type: cell-based; conditions: for loss of potency compared to compound (A1) (growth inhibition): 92.1 and MP41 cell lines
Text: The selective antiproliferative profile of the chromodepsins against GNAQ/GNA11 mutant cell lines is confirmed by the lack of activity against the A375 and SK MEL 30 cell lines that are independent from GNAQ/GNA11 signaling. The potency ranking using the 92.1 and MP41 cell lines is in good agreement with the previously SAR studies. […] These findings are in line with a recent report from Voss et al., highlighting the importance of the “lipophilic anchors” of compound (A1) at the residues varied in compounds 2 and 3, in context of binding kinetics and prolonged residence time on the target proteins. The retained potency of compound 4 indicates a promising exit vector for potential synthetic or biosynthetic modifications of the scaffold. […] The linearized depsipeptides compounds 5-7 lack any antiproliferative activity. In this experimental setup, the cellular permeability of the compounds was a crucial factor contributing to the observed antiproliferative potency. Therefore, all compounds were characterized in a low efflux MCDK assay and determined their exposed polar surface areas (EPSA) in order to assess their passive cellular permeabilities. All macrocyclic chromodepsins that feature the N acyl Hle side chain show similar results concerning their % fraction absorbed (% FA; average ˜60% FA+20%) and EPSA values.
as §1, §2

[7] = EPSA determination by supercritical fluid chromatography; type: physicochemical; conditions: for EPSA: modified EPSA method, SFC
Procedure: […] by supercritical fluid chromatography: Compounds (A1) and 2-15 were tested by supercritical fluid chromatography (SFC) to determine their ESAPSA values. Samples were analyzed using a Chirex 3014 column ([…], 3×100 mm column, 100 Å pore size; Phenomenex. The starting conditions were 5% methanol containing 20 mM ammonium formate and 95% scCO2. The gradient was increased linearly to 60% methanol containing 20 mM ammonium formate in 4.5 min.

[8] = A375 (GNAQ/11 wild type), 96 hours of treatment, read-out: GI50 by cell line, A375
[9] = A375 cell line, average of Rep. 1 and 2, read-out: GI50 A375 Average
[10] = A375 cell line, replicate 1, read-out: GI50 A375 Rep. 1
[11] = A375 cell line, replicate 2, read-out: GI50 A375 Rep. 2
[12] = 92.1 (GNAQ Q209L), 96 hours of treatment, read-out: GI50 by cell line, 92.1
[13] = 92.1 cell line, average of Rep. 1 and 2, read-out: GI50 92.1 Average
[14] = 92.1 cell line, replicate 1, read-out: GI50 92.1 Rep. 1
[15] = 92.1 cell line, replicate 2, read-out: GI50 92.1 Rep. 2
[16] = SK-MEL-30 (GNAQ/11 wild type), 96 hours of treatment, read-out: GI50 by cell line, SK-MEL-30
[17] = SK-MEL-30 cell line, average of Rep. 1 and 2, read-out: GI50 SK-MEL-30 Average
[18] = SK-MEL-30 cell line, replicate 1, read-out: GI50 SK-MEL-30 Rep. 1
[19] = SK-MEL-30 cell line, replicate 2, read-out: GI50 SK-MEL-30 Rep. 2
[20] = versus macrocyclic chromodepsins with N-acyl-Hle side chain
[21] = MP41 (GNA11 Q209L), 96 hours of treatment, read-out: GI50 by cell line, MP41
[22] = MP41 cell line, average of Rep. 1 and 2, read-out: GI50 MP41 Average
[23] = MP41 cell line, replicate 1, read-out: GI50 MP41 Rep. 1
[24] = MP41 cell line, replicate 2, read-out: GI50 MP41 Rep. 2

SMILES | GI50 [1, 8] | GI50 [1, 9] | GI50 [1, 10] | GI50 [1, 11] | GI50 [2, 12] | GI50 [2, 13] | GI50 [2, 14] | GI50 [2, 15] | GI50 [3, 16] | GI50 [3, 17] | GI50 [3, 18] | GI50 [3, 19] | % Fraction absorbed [4] | % Recovery [4] | Papp A − B [4] | GI50 [5, 21] | GI50 [5, 22] | GI50 [5, 23] | GI50 [5, 24] | EPSA [7] | other results
C=C1C(=O)NC(C)C(=O)N(C)C(C)C(=O)NC(C(O)C(C)C)C(=O)N(C)C(C(C)OC)C(=O)OC(C)C(NC(C)=O)C(=O)OC(Cc2ccccc2)C(=O)N1C (centres unmarked) [Compound 15] (Ac-T[PhLac][NMeDha]A[NMeA][ξLeu(3ξ-OH)][NMeT](Me); ester 1-C; configuration not given here) | > 10000 nM | > 10000 nM | > 10000 nM | > 10000 nM | > 10000 nM | > 10000 nM | > 10000 nM | > 10000 nM | > 10000 nM | > 10000 nM | > 10000 nM | > 10000 nM | 15% | 90% | 0.79 ×10⁻⁶ cm/s | > 10000 nM | > 10000 nM | > 10000 nM | > 10000 nM | 109 A^2 | reduction in % FA [4, 20]: ~5 fold; antiproliferative activity (in words) [6]: some antiproliferative activity observed at the highest doses tested; GI50 ([6]; cell line not specified): > 10000 nM; change in EPSA (in words) [7, 20]: slight changes
CCC(=O)N[C@H](C(=O)O[C@H](C(C)C)[C@@H]1NC(=O)[C@H](C)N(C)C(=O)[C@H](C)NC(=O)[C@@H](C)N(C)C(=O)[C@@H](Cc2ccccc2)OC(=O)[C@@H](NC(C)=O)[C@@H](C(C)C)OC(=O)[C@H]([C@@H](C)OC)N(C)C1=O)[C@H](O)C(C)C [Compound 11] (Ac-[X1][dPhLac][dNMeA]A[NMeA][X1](Leu(3R-OH,Nα-propionyl))[NMeT](Me); ester 1-C) | > 260 nM | > 260 nM | > 260 nM | > 260 nM | 1.8 nM | 1.8 nM | 1.4 nM | 2.24 nM | > 260 nM | > 260 nM | > 260 nM | > 260 nM | 79.5% | 76% | 8.5 ×10⁻⁶ cm/s | 0.7 nM | 0.7 nM | 0.54 nM | 0.78 nM | 95 A^2 | loss of potency compared to compound (A1) (growth inhibition) [6]: two to three
C=C1C(=O)N[C@@H](C)C(=O)N(C)[C@@H](C)C(=O)N[C@@H]([C@H](OC(=O)[C@@H](NC(=O)CC)[C@H](O)C(C)C)C(C)C)C(=O)N(C)[C@@H]([C@@H](C)OC)C(=O)O[C@H](CSC)[C@H](NC(C)=O)C(=O)O[C@H](Cc2ccccc2)C(=O)N1C [Compound 2] (Ac-[X5][dPhLac][NMeDha]A[NMeA][X1](Leu(3R-OH,Nα-propionyl))[NMeT](Me); ester 1-C) | > 260 nM | > 260 nM | > 260 nM | > 260 nM | 9.8 nM | 9.8 nM | 8 nM | 11.6 nM | > 260 nM | > 260 nM | > 260 nM | > 260 nM | 72.6% | 72% | 6.35 ×10⁻⁶ cm/s | 3.7 nM | 3.7 nM | 3.17 nM | 4.3 nM | 104 A^2 | loss of potency compared to compound (A1) (growth inhibition) [6]: ~15 fold
C=C1C(=O)N[C@@H](C)C(=O)N(C)[C@@H](C)C(=O)N[C@@H]([C@H](OC(=O)[C@@H](NC(=O)CC)[C@H](O)C(C)C)C(C)C)C(=O)N(C)[C@@H]([C@@H](C)OC)C(=O)O[C@H](C)[C@H](NC(C)=O)C(=O)O[C@H](Cc2ccccc2)C(=O)N1C [Compound 14] (Ac-T[dPhLac][NMeDha]A[NMeA][X1](Leu(3R-OH,Nα-propionyl))[NMeT](Me); ester 1-C) | > 260 nM | > 260 nM | > 260 nM | > 260 nM | 5.2 nM | 5.2 nM | 2.95 nM | 7.53 nM | > 260 nM | > 260 nM | > 260 nM | > 260 nM | 53.3% | 85% | 3.32 ×10⁻⁶ cm/s | 2.2 nM | 2.2 nM | 1.5 nM | 2.81 nM | 95 A^2 | loss of potency compared to compound (A1) (growth inhibition) [6]: ~10 fold
C=C1C(=O)N[C@@H](C)C(=O)N(C)[C@@H](C)C(=O)N[C@@H]([C@H](OC(=O)[C@@H](NC(C)=O)[C@H](O)C(C)C)C(C)C)C(=O)N(C)[C@@H]([C@@H](C)OC)C(=O)O[C@H](C(C)C)[C@H](NC(C)=O)C(=O)O[C@H](Cc2ccccc2)C(=O)N1C [Compound 8] (Ac-[X1][dPhLac][NMeDha]A[NMeA][Leu(3R-O(AcLeu(3R-OH)))][NMeT](Me); ester 1-C) | > 260 nM | > 260 nM | > 260 nM | > 260 nM | 1 nM | 1 nM | 0.82 nM | 1.24 nM | > 260 nM | > 260 nM | > 260 nM | > 260 nM | 70.4% | 78% | 5.84 ×10⁻⁶ cm/s | 0.4 nM | 0.4 nM | 0.33 nM | 0.46 nM | 94 A^2 | loss of potency compared to compound (A1) (growth inhibition) [6]: two to three
CCC(=O)N[C@H](C(=O)O[C@H](C(C)C)[C@@H]1NC(=O)[C@H](C)N(C)C(=O)[C@H](C)NC(=O)[C@H](C)N(C)C(=O)[C@@H](Cc2ccccc2)OC(=O)[C@@H](NC(C)=O)[C@@H](C(C)C)OC(=O)[C@H]([C@@H](C)OC)N(C)C1=O)[C@H](O)C(C)C [Compound 10] (Ac-[X1][dPhLac][NMeA]A[NMeA][X1](Leu(3R-OH,Nα-propionyl))[NMeT](Me); ester 1-C) | > 10000 nM | > 10000 nM | > 10000 nM | > 10000 nM | 607 nM | 607 nM | 760 nM | 453 nM | > 10000 nM | > 10000 nM | > 10000 nM | > 10000 nM | 37.6% | 77% | 2.03 ×10⁻⁶ cm/s | 396 nM | 396 nM | 419 nM | 372 nM |  | loss of potency compared to compound (A1) (growth inhibition) [6]: 25-30 fold

Source: patent US20240252668A1, “ANTIBODY DRUG CONJUGATES AND METHODS FOR MAKING THEREOF” (Novartis AG, priority 2021, published 2024)
